“And” between values parts separate entries of the source, which are not always exact repeats. Identical values can stand only once.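 Assay format: 96-well plates, 48-hour exposure. GI50: concentration for 50% inhibition of growth. TGI: total growth inhibition.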 Some results are limits rather than exact numbers.

Among the test systems are SK-MEL-5 melanoma; SK-OV-3 ovarian; KM12 colon; SNB-75 CNS; IGROV1 ovarian; OVCAR-3 ovarian; HCC-2998 colon; MDA-MB-231 breast; OVCAR-5 ovarian; 786-0 renal.
Test in all cases: NCI tumour cell line growth inhibition, 48 h

`C/C(=N\NC(=S)N1CCCCC1)c1ccccn1`: the GI50 was 0.0694 µM in the assay with SK-MEL-5 melanoma; 0.213 µM in the assay on SK-OV-3 ovarian; 0.0634 µM in the assay on KM12 colon; 1.66 µM in the assay on SNB-75 CNS; below 0.01 µM in the assay with IGROV1 ovarian; below 0.01 µM with OVCAR-3 ovarian. The GI50 with HCC-2998 colon is 0.243 µM; in the assay on MDA-MB-231 breast, 0.123 µM; in the assay with OVCAR-5 ovarian, 0.054 µM; with 786-0 renal it was 0.0517 µM. Also, the TGI with SK-MEL-5 melanoma was 0.87 µM; with SK-OV-3 ovarian it was 1.94 µM; with KM12 colon it was 4.72 µM; with SNB-75 CNS, 6.8 µM; with IGROV1 ovarian, 5.79 µM; in the assay with OVCAR-3 ovarian, 1.69 µM. In addition, the TGI in the assay on HCC-2998 colon turned out to be 6.93 µM; in the assay with MDA-MB-231 breast it was 6.33 µM; in the assay on OVCAR-5 ovarian it was 13.7 µM; with 786-0 renal it was 2.39 µM.
Take `Nc1nccc(-c2c(-c3ccc(F)cc3)ncn2C2CCNCC2)n1`: the GI50 in the assay with SK-MEL-5 melanoma was 1.74 µM and 4.23 µM; in the assay with SK-OV-3 ovarian, 3.34 µM and 5.45 µM; in the assay with KM12 colon it was 4.26 µM and 4.01 µM; with SNB-75 CNS, 2.91 µM and 1.17 µM; in the assay with IGROV1 ovarian, 5.13 µM and 4.73 µM; in the assay on OVCAR-3 ovarian it was 6.78 µM and 4.93 µM. Moreover, the GI50 in the assay with HCC-2998 colon is 9.58 µM and 3.89 µM; in the assay on MDA-MB-231 breast it was > 25 µM and 3.97 µM; with OVCAR-5 ovarian it was 9.62 µM and 5.81 µM; in the assay on 786-0 renal, 16 µM and 5.59 µM. In addition, the TGI is above 19.9 µM with SK-MEL-5 melanoma; above 25 µM with SK-OV-3 ovarian; above 25 µM with KM12 colon; > 23.4 µM and 12.7 µM in the assay on SNB-75 CNS; above 25 µM in the assay with IGROV1 ovarian; above 25 µM in the assay with OVCAR-3 ovarian. In addition, the TGI was > 25 µM and 12.2 µM in the assay on HCC-2998 colon; above 25 µM in the assay with MDA-MB-231 breast; above 25 µM in the assay on OVCAR-5 ovarian; above 25 µM with 786-0 renal.
As to `O=c1c2c(=NCCN3CCCC3)cc3c(=O)n(CCCN4CCOCC4)c(=O)c4c(-c5ccc(CN6CCCC6)cc5)cc(c(O)n1CCCN1CCOCC1)c2c4-3`, the GI50 in the assay on SK-MEL-5 melanoma is 0.133 µM; in the assay with SK-OV-3 ovarian it was 0.086 µM; in the assay on KM12 colon it was 0.0661 µM; in the assay on SNB-75 CNS, 0.0582 µM; with IGROV1 ovarian, 0.0399 µM; in the assay on OVCAR-3 ovarian it was 0.0244 µM. For the same compound, the GI50 in the assay with HCC-2998 colon is 0.0556 µM; with MDA-MB-231 breast, 0.0397 µM; in the assay with OVCAR-5 ovarian, 0.0847 µM; in the assay on 786-0 renal it was 0.0416 µM. Also, the TGI in the assay on SK-MEL-5 melanoma was determined as 0.3 µM; with SK-OV-3 ovarian, 1.43 µM; with KM12 colon, 0.841 µM; in the assay with SNB-75 CNS, 0.228 µM; in the assay on IGROV1 ovarian, 1.47 µM; in the assay on OVCAR-3 ovarian, 0.109 µM. For the same compound, the TGI in the assay with HCC-2998 colon is 0.284 µM; in the assay with MDA-MB-231 breast, 0.384 µM; in the assay on OVCAR-5 ovarian it was 0.724 µM; in the assay on 786-0 renal, 0.383 µM.
For `CCN1C/C(=C\c2cc(OC)c(OC)cc2OC)C(=O)/C(=C/c2cc(OC)c(OC)cc2OC)C1`, the GI50 with SK-MEL-5 melanoma is 1.59 µM; with SK-OV-3 ovarian, 3.69 µM; in the assay on KM12 colon, 1.57 µM; in the assay on SNB-75 CNS it was 5.86 µM; in the assay with IGROV1 ovarian, 3.06 µM; in the assay with OVCAR-3 ovarian it was 2.29 µM. The GI50 in the assay on HCC-2998 colon is 1.74 µM; in the assay on MDA-MB-231 breast, 3.66 µM; with OVCAR-5 ovarian, 3.2 µM; in the assay with 786-0 renal, 2.87 µM. For the same compound, the TGI in the assay on SK-MEL-5 melanoma was 3.53 µM; in the assay with SK-OV-3 ovarian, above 100 µM; in the assay with KM12 colon, 3.04 µM; in the assay on SNB-75 CNS, 78 µM; in the assay on IGROV1 ovarian it was 11.2 µM; with OVCAR-3 ovarian, 5.17 µM. The TGI is 3.33 µM with HCC-2998 colon, 12 µM in the assay with MDA-MB-231 breast, above 100 µM with OVCAR-5 ovarian and 8.09 µM with 786-0 renal.
As to `O=C(Cc1ccc(/C=C/C(=O)c2ncc[nH]2)cc1)Nc1ccc(F)cc1`, the GI50 is 6.06 µM in the assay with SK-MEL-5 melanoma; 9.38 µM in the assay with SK-OV-3 ovarian; 2.1 µM with KM12 colon; 11.1 µM with SNB-75 CNS; 2.66 µM in the assay with IGROV1 ovarian; 1.7 µM with OVCAR-3 ovarian. The GI50 is 5.43 µM in the assay on HCC-2998 colon, 1.83 µM with MDA-MB-231 breast, 2.6 µM with OVCAR-5 ovarian and 1.37 µM in the assay on 786-0 renal. Further, the TGI in the assay on SK-MEL-5 melanoma was 11.9 µM; with SK-OV-3 ovarian, above 33.3 µM; in the assay with KM12 colon, 7.91 µM; in the assay on SNB-75 CNS, above 33.3 µM; in the assay on IGROV1 ovarian, 13.9 µM; with OVCAR-3 ovarian, 6.01 µM. Also, the TGI with HCC-2998 colon came out at 10.9 µM; with MDA-MB-231 breast it was 10.3 µM; with OVCAR-5 ovarian, 9.81 µM; in the assay with 786-0 renal, 5.81 µM.
For `NS(=O)(=O)c1ccc(Nc2cc(-c3cccc(O)c3)[nH]n2)cc1`, the GI50 in the assay with SK-MEL-5 melanoma is 14.8 µM; with SK-OV-3 ovarian it was above 25 µM; with KM12 colon it was above 23.7 µM; in the assay with SNB-75 CNS, 24.5 µM; in the assay on IGROV1 ovarian, above 25 µM; in the assay with OVCAR-3 ovarian, 16.2 µM. The GI50 is above 25 µM in the assay on HCC-2998 colon, 18 µM in the assay on MDA-MB-231 breast, above 25 µM with OVCAR-5 ovarian and above 25 µM with 786-0 renal. Further, the TGI in the assay with SK-MEL-5 melanoma, in the assay with SK-OV-3 ovarian, with KM12 colon, in the assay with SNB-75 CNS, in the assay with IGROV1 ovarian and in the assay on OVCAR-3 ovarian was above 25 µM each time. Further, the TGI in the assay with HCC-2998 colon, with MDA-MB-231 breast, in the assay on OVCAR-5 ovarian and in the assay on 786-0 renal was above 25 µM throughout.
On to `CC(=O)O[C@H]1C(=O)[C@@]2(C)C(C(OC(=O)c3ccccc3)[C@]3(O)C[C@H](OC(=O)C(OC(=O)CCCC(=O)NCCCN(C)C)C(NC(=O)c4ccccc4)c4ccccc4)C(C)=C1C3(C)C)C1(OC(C)=O)COC1C[C@@H]2O` (stereo not given in full), for which the TGI with SK-MEL-5 melanoma was 18.6 µM; with SK-OV-3 ovarian it was 1.45 µM; in the assay on KM12 colon it was 3.19 µM; with SNB-75 CNS, 0.021 µM; in the assay with IGROV1 ovarian, 59 µM; in the assay with OVCAR-3 ovarian, below 0.01 µM. The TGI in the assay with HCC-2998 colon amounted to 0.0309 µM; in the assay with MDA-MB-231 breast, 13.8 µM; in the assay on OVCAR-5 ovarian, 13.1 µM; in the assay on 786-0 renal, 11 µM.
Consider `O=S(=O)(NCCCNc1nccc(-c2c(-c3ccc(O)cc3)nc3sccn23)n1)c1ccc(F)cc1`, for which the GI50 was 1.21 µM in the assay on SK-MEL-5 melanoma; 2.12 µM in the assay with SK-OV-3 ovarian; 2.02 µM with KM12 colon; 1.03 µM in the assay with SNB-75 CNS; 2.85 µM with IGROV1 ovarian; 2.66 µM in the assay on OVCAR-3 ovarian. The GI50 in the assay on HCC-2998 colon is 3.37 µM; in the assay with MDA-MB-231 breast, 1.82 µM; with OVCAR-5 ovarian, 5.58 µM; in the assay with 786-0 renal it was 3.22 µM. Further, the TGI in the assay on SK-MEL-5 melanoma came to 2.67 µM; in the assay on SK-OV-3 ovarian, 8.88 µM; in the assay with KM12 colon it was 5.46 µM; with SNB-75 CNS, 7.91 µM; in the assay on IGROV1 ovarian, 8.78 µM; in the assay on OVCAR-3 ovarian it was 12.1 µM. For the same compound, the TGI in the assay on HCC-2998 colon was 6.93 µM; in the assay with MDA-MB-231 breast, above 100 µM; in the assay on OVCAR-5 ovarian, above 100 µM; in the assay with 786-0 renal, above 100 µM.

Source of the values: PubChem BioAssay (NCI).
